These results are taken from ChEMBL document CHEMBL4813916, “Synthesis and characterization of new potent TLR7 antagonists based on analysis of the binding mode using biomolecular simulations” (Eur J Med Chem, 2021).

pIC50: −log10 of the molar value.

The target in the first test is T1, Toll-like receptor 7 (Homo sapiens, UniProt Q9NYK1).
T1 sequence (Q9NYK1 whole entry): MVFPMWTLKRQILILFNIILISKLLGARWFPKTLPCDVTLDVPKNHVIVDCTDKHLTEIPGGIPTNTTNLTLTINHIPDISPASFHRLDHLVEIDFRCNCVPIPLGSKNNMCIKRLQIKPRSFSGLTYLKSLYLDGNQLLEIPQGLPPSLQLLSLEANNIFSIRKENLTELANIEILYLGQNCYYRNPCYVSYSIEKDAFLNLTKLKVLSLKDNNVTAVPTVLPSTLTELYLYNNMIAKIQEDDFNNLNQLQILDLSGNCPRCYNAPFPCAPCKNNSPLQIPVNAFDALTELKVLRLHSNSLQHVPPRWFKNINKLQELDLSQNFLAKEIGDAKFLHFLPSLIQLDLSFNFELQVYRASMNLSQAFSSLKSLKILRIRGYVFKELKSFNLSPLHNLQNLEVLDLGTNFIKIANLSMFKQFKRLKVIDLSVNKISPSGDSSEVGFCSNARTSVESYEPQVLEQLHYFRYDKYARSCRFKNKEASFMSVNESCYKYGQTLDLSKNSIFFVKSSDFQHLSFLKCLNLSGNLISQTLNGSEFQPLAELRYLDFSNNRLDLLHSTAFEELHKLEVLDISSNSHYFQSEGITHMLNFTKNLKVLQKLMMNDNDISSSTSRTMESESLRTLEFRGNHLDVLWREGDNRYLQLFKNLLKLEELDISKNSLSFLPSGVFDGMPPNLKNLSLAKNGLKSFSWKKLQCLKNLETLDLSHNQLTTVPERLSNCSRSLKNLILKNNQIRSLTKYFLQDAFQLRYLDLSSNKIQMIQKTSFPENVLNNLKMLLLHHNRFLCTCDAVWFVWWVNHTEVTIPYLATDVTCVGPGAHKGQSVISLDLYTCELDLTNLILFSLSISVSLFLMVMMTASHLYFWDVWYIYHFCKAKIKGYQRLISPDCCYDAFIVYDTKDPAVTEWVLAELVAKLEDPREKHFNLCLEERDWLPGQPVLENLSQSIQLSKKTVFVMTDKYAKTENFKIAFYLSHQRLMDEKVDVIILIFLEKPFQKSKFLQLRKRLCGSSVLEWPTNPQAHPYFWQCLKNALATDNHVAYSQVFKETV
Description: Antagonist activity at TLR7 (unknown origin).
Broadly, the pIC50 is the negative decadic logarithm of the IC50, by convention in mol/L. Turning to `COc1cc2c(N3CCN(C(=O)c4ccccc4)CC3)nc(N(C)C)nc2cc1OC1CCCC1`, the pIC50 was 5.00.
The same measure, in the same setting: next, `COC(=O)[C@H]1O[C@H](n2cnc3c(N)ncnc32)[C@H](O)[C@@H]1O`: less than 3.00; `CCCSc1nc2c(O)nnc(O)c2n1Cc1ccccc1`: 3.96; `CCN(CC)CCn1cnc2c(=O)oc3ccccc3c21`: 4.43.
Same read-out and setting: next, `COc1cc2c(N3CCN(C(=O)OC(C)(C)C)CC3)nc(N3CCN(C)CC3)nc2cc1OCc1ccccc1`: 5.00; `Nc1ncnc2c1nc(Br)n2C[C@@H](O)CO`: 3.57; `CC(C)Cn1cnc2c(=O)oc3ccccc3c21`: 4.64.
As for `CCSc1nc2c(N)ncnc2[nH]1`, the pIC50 is 3.60.
`NCc1ccc(C(=O)Nc2cccc(-c3nc4cc(OCCCN5CCCC5)ccc4o3)c2)cc1` gave a pIC50 of 4.18.
The same measure, in the same setting: next, `Nc1ncnc2c1ncn2CCO`: 3.16; `CCCNc1nc2c(c(=O)n(C)c(=O)n2C)n1CC(C)C`: 3.18.
The same measure, in the same setting: next, `CCCCSc1nnc2n(N)c(=O)c3ccccc3n12`: 3.73.

The target of another test is T1, Toll-like receptor 7. The test can be described thus: Antagonist activity at human TLR7 expressed in HEK-blue-HTLR7 cells assessed as inhibition of CL264-induced NFkappaB activation measured after 24 hrs by secreted alkaline phosphatase reporter assay. Format: cell-based.
For `COc1ccc(CNc2nc(N3CCN(C4CCCC4)CC3)c3cc(OC)c(OCCCN4CCCC4)cc3n2)cc1`, the negative-log IC50 (pIC50) was 5.74.
On to `COc1cc2c(N(C)C)nc(NCCCN3CCN(C)CC3)nc2cc1OCCCN1CCCC1`, for which the pIC50 was less than 4.30.
Still for that read-out and setting: next, `COc1ccc(CNc2nc(N3CCN(C)CC3)c3cc(OC)c(OCc4ccccc4)cc3n2)cc1`: 4.70; `COc1ccc(CNc2nc(N3CCNCC3)c3cc(OC)c(OCc4ccccc4)cc3n2)cc1`: 4.56.
